The record followed here is article PMC5218480 (PLoS ONE, 2017).

This assay concerns MV-4-11 cells. Nature of the assay: Gene expression microarray analysis (Affymetrix PrimeView) and GSEA. The format is cell-based, human. The arrangement: RFU PODN (11730768_x_at) / Fold change /veh PODN (11730768_x_at) / RFU LINC00158 (11744669_a_at) / Fold change /veh LINC00158 (11744669_a_at) / RFU DUSP10 (11751237_a_at) / Fold change /veh DUSP10 (11751237_a_at) / RFU ID3 (11757404_x_at) / Fold change /veh ID3 (11757404_x_at) / RFU PLEKHG5 (11737974_s_at) / Fold change /veh PLEKHG5 (11737974_s_at) / RFU LRRC4B (11730491_at) / Fold change /veh LRRC4B (11730491_at) / RFU GIMAP4 (11747438_a_at) / Fold change /veh GIMAP4 (11747438_a_at) / RFU KRT8 (11758183_x_at) / Fold change /veh KRT8 (11758183_x_at) / RFU CNN1 (11734310_a_at) / Fold change /veh CNN1 (11734310_a_at) / RFU VPS37D (11726825_at) / Fold change /veh VPS37D (11726825_at) / RFU C10orf10 (11716522_x_at) / Fold change /veh C10orf10 (11716522_x_at) / RFU KIR2DL2 /// KIR2DL4 /// KIR2DL5A /// KIR2DL5B /// KIR2DS1 /// KIR2DS2 /// KIR2DS3 /// KIR2DS4 /// KIR3DL3 /// KIR3DL3 /// KIR3DS1 (11738374_at) / Fold change /veh KIR2DL2 /// KIR2DL4 /// KIR2DL5A /// KIR2DL5B /// KIR2DS1 /// KIR2DS2 /// KIR2DS3 /// KIR2DS4 /// KIR3DL3 /// KIR3DL3 /// KIR3DS1 (11738374_at) / RFU C1QL1 (11718748_at) / Fold change /veh C1QL1 (11718748_at) / RFU TMPRSS4 (11747572_a_at) / Fold change /veh TMPRSS4 (11747572_a_at) / RFU HAMP (11756126_x_at) / Fold change /veh HAMP (11756126_x_at) / RFU RNFT2 (11725882_a_at) / Fold change /veh RNFT2 (11725882_a_at) / RFU NR4A2 (11747474_a_at) / Fold change /veh NR4A2 (11747474_a_at) / RFU ABCC12 (11746883_a_at) / Fold change /veh ABCC12 (11746883_a_at) / RFU TMEM136 (11760407_x_at) / Fold change /veh TMEM136 (11760407_x_at) / RFU CLDN22 /// WWC2 (11732394_at) / Fold change /veh CLDN22 /// WWC2 (11732394_at) / RFU HLA-DPB1 (11760878_x_at) / Fold change /veh HLA-DPB1 (11760878_x_at) / RFU SPINT1 (11716480_a_at) / Fold change /veh SPINT1 (11716480_a_at) / RFU GAP43 (11754022_s_at) / Fold change /veh GAP43 (11754022_s_at) / RFU A4GNT (11735810_at) / Fold change /veh A4GNT (11735810_at) / RFU PRB3 (11715151_x_at) / Fold change /veh PRB3 (11715151_x_at) / RFU TUBB4B (11761932_at) / Fold change /veh TUBB4B (11761932_at) / RFU CAPN14 (11732068_a_at) / Fold change /veh CAPN14 (11732068_a_at) / RFU TMCC2 (11721928_a_at) / Fold change /veh TMCC2 (11721928_a_at) / RFU IRGQ (11745062_a_at) / Fold change /veh IRGQ (11745062_a_at) / RFU FAM174B (11720279_a_at) / Fold change /veh FAM174B (11720279_a_at) / RFU TMPRSS4 (11748680_a_at) / Fold change /veh TMPRSS4 (11748680_a_at) / RFU FAM212B (11763350_a_at) / Fold change /veh FAM212B (11763350_a_at) / RFU PLEKHG5 (11743358_a_at) / Fold change /veh PLEKHG5 (11743358_a_at) / RFU ZSCAN30 (11745921_a_at) / Fold change /veh ZSCAN30 (11745921_a_at) / RFU CMKLR1 (11741424_a_at) / Fold change /veh CMKLR1 (11741424_a_at) / RFU LOC101060620 /// MAPK8IP1 (11723275_at) / Fold change /veh LOC101060620 /// MAPK8IP1 (11723275_at) / RFU SPTSSB (11747773_x_at) / Fold change /veh SPTSSB (11747773_x_at) / RFU PRSS12 (11739890_at) / Fold change /veh PRSS12 (11739890_at) / RFU BIN1 (11741810_x_at) / Fold change /veh BIN1 (11741810_x_at) / RFU WNT11 (11732464_a_at) / Fold change /veh WNT11 (11732464_a_at) / RFU C10orf10 (11716521_a_at) / Fold change /veh C10orf10 (11716521_a_at) / RFU C5orf56 (11738089_at) / Fold change /veh C5orf56 (11738089_at) / RFU CYB561 (11721691_x_at) / Fold change /veh CYB561 (11721691_x_at) / RFU ANKRD19P (11752326_a_at) / Fold change /veh ANKRD19P (11752326_a_at) / RFU OR2T12 /// OR2T33 /// OR2T8 (11738714_s_at) / Fold change /veh OR2T12 /// OR2T33 /// OR2T8 (11738714_s_at) / RFU VCAN (11748164_a_at) / Fold change /veh VCAN (11748164_a_at) / RFU JSRP1 (11732532_at) / Fold change /veh JSRP1 (11732532_at) / RFU KRTAP10-11 (11738290_x_at) / Fold change /veh KRTAP10-11 (11738290_x_at) / RFU MYO3A (11730013_a_at) / Fold change /veh MYO3A (11730013_a_at) / RFU EBF3 (11725865_a_at) / Fold change /veh EBF3 (11725865_a_at) / RFU CAMK2N1 (11719241_x_at) / Fold change /veh CAMK2N1 (11719241_x_at) / RFU C5orf56 (11738088_a_at) / Fold change /veh C5orf56 (11738088_a_at) / RFU OLFML3 (11715873_a_at) / Fold change /veh OLFML3 (11715873_a_at) / RFU LOC100653217 /// NTM (11731650_a_at) / Fold change /veh LOC100653217 /// NTM (11731650_a_at) / RFU MAPK11 (11762145_a_at) / Fold change /veh MAPK11 (11762145_a_at) / RFU FIZ1 (11724087_x_at) / Fold change /veh FIZ1 (11724087_x_at) / RFU OASL (11726364_x_at) / Fold change /veh OASL (11726364_x_at) / RFU SOX15 (11748057_x_at) / Fold change /veh SOX15 (11748057_x_at) / RFU CD79A (11719716_a_at) / Fold change /veh CD79A (11719716_a_at) / RFU HIST1H1D (11736915_at) / Fold change /veh HIST1H1D (11736915_at) / RFU CASKIN2 (11723855_a_at) / Fold change /veh CASKIN2 (11723855_a_at) / RFU LOC730098 (11760151_x_at) / Fold change /veh LOC730098 (11760151_x_at) / RFU OR4N2 (11742367_at) / Fold change /veh OR4N2 (11742367_at) / RFU PRRT2 (11749266_a_at) / Fold change /veh PRRT2 (11749266_a_at) / RFU SNX32 (11753110_a_at) / Fold change /veh SNX32 (11753110_a_at) / RFU CDHR5 (11726645_a_at) / Fold change /veh CDHR5 (11726645_a_at) / RFU RCAN1 (11760418_a_at) / Fold change /veh RCAN1 (11760418_a_at) / RFU FAM167A (11723789_a_at) / Fold change /veh FAM167A (11723789_a_at) / RFU FAM26E (11764081_at) / Fold change /veh FAM26E (11764081_at) / RFU ISYNA1 (11749810_s_at) / Fold change /veh ISYNA1 (11749810_s_at) / RFU ACY1 (11761880_at) / Fold change /veh ACY1 (11761880_at) / RFU 11764098_at / Fold change /veh 11764098_at / RFU SAMD14 (11745864_x_at) / Fold change /veh SAMD14 (11745864_x_at) / RFU NPB (11741838_a_at) / Fold change /veh NPB (11741838_a_at) / RFU TMPRSS6 (11731388_a_at) / Fold change /veh TMPRSS6 (11731388_a_at) / RFU KRTAP10-2 (11738614_at) / Fold change /veh KRTAP10-2 (11738614_at) / RFU ARHGAP8 /// PRR5-ARHGAP8 (11727945_x_at) / Fold change /veh ARHGAP8 /// PRR5-ARHGAP8 (11727945_x_at) / RFU KRTAP5-7 /// NADSYN1 (11734609_at) / Fold change /veh KRTAP5-7 /// NADSYN1 (11734609_at) / RFU RASL12 (11751679_a_at) / Fold change /veh RASL12 (11751679_a_at) / RFU CDKN2B (11736163_a_at) / Fold change /veh CDKN2B (11736163_a_at) / RFU PRF1 (11729649_at) / Fold change /veh PRF1 (11729649_at) / RFU, ZNF638 /// ZNF638-IT1 / Fold change vs veh, ZNF638 /// ZNF638-IT1 / RFU, PANK3 / Fold change vs veh, PANK3 / RFU, SH3YL1 / Fold change vs veh, SH3YL1 / RFU, ZEB2 / Fold change vs veh, ZEB2 / RFU, NRIP1 / Fold change vs veh, NRIP1 / RFU, PTTG1IP / Fold change vs veh, PTTG1IP / RFU, CAPN2 / Fold change vs veh, CAPN2 / RFU, MED14 / Fold change vs veh, MED14 / RFU, SNORA58 / Fold change vs veh, SNORA58 / RFU, C1orf63 / Fold change vs veh, C1orf63 / RFU, LRRFIP1 / Fold change vs veh, LRRFIP1 / RFU, NDUFAF7 / Fold change vs veh, NDUFAF7 / RFU, SLC12A2 / Fold change vs veh, SLC12A2 / RFU, IBTK / Fold change vs veh, IBTK / RFU, ESF1 / Fold change vs veh, ESF1 / Fold change vs veh, TMEM50B / RFU, TAOK1 / Fold change vs veh, TAOK1 / RFU, ACBD3 / Fold change vs veh, ACBD3 / RFU, TMA16 / Fold change vs veh, TMA16 / RFU, RWDD3 / Fold change vs veh, RWDD3 / RFU, BCAT1 / Fold change vs veh, BCAT1 / RFU, EDEM3 / Fold change vs veh, EDEM3 / RFU, TMEM33 / Fold change vs veh, TMEM33 / RFU, WDR75 / Fold change vs veh, WDR75 / RFU, AHCTF1 / Fold change vs veh, AHCTF1 / RFU, TFRC / Fold change vs veh, TFRC / RFU, ZDHHC17 / Fold change vs veh, ZDHHC17 / RFU, NOM1 / Fold change vs veh, NOM1 / RFU, ARL8B / Fold change vs veh, ARL8B / RFU, ZBTB11 / Fold change vs veh, ZBTB11 / RFU, TAMM41 / Fold change vs veh, TAMM41 / RFU, KIAA1704 /// LOC100996395 / Fold change vs veh, KIAA1704 /// LOC100996395 / RFU, ING1 / Fold change vs veh, ING1 / RFU, TRMT61B / Fold change vs veh, TRMT61B / RFU, FUBP3 / Fold change vs veh, FUBP3 / RFU, TP53 / Fold change vs veh, TP53 / RFU, TNKS2 / Fold change vs veh, TNKS2 / RFU, ZFP14 / Fold change vs veh, ZFP14 / RFU, ACTR2 / Fold change vs veh, ACTR2 / RFU, PPP3R1 / Fold change vs veh, PPP3R1 / RFU, PIK3R1 / Fold change vs veh, PIK3R1 / RFU, HNRNPA1 / Fold change vs veh, HNRNPA1 / RFU, RNF170 / Fold change vs veh, RNF170 / RFU, ZNF28 / Fold change vs veh, ZNF28 / RFU, RNGTT / Fold change vs veh, RNGTT / RFU, OGT / Fold change vs veh, OGT / RFU, BRD1 / Fold change vs veh, BRD1 / RFU, MARS / Fold change vs veh, MARS / RFU, ZNF655 / Fold change vs veh, ZNF655 / RFU, FAHD1 / Fold change vs veh, FAHD1 / RFU, BDP1 / Fold change vs veh, BDP1 / RFU, LRRCC1 / Fold change vs veh, LRRCC1 / RFU, ARID1A / Fold change vs veh, ARID1A / RFU, ZNF146 / Fold change vs veh, ZNF146 / RFU, ZNF330 / Fold change vs veh, ZNF330 / RFU, GPN3 / Fold change vs veh, GPN3 / RFU, C9orf123 / Fold change vs veh, C9orf123 / RFU, N4BP2L2 / Fold change vs veh, N4BP2L2 / RFU, ARFIP1 / Fold change vs veh, ARFIP1 / RFU, FAM179B / Fold change vs veh, FAM179B / RFU, BCL10 / Fold change vs veh, BCL10 / RFU, UHRF1BP1L / Fold change vs veh, UHRF1BP1L / RFU, BET1 / Fold change vs veh, BET1 / RFU, CNOT2 / Fold change vs veh, CNOT2 / RFU, ZNF268 / Fold change vs veh, ZNF268 / Fold change vs veh, ZNF507 / RFU, DGCR2 / Fold change vs veh, DGCR2 / RFU, WDSUB1 / Fold change vs veh, WDSUB1 / Fold change vs veh, HSP90B1 /// MIR3652 / RFU, ADSS / Fold change vs veh, ADSS / RFU, GK / Fold change vs veh, GK / RFU, ZNF148 / Fold change vs veh, ZNF148 / RFU, TAF9 / Fold change vs veh, TAF9 / RFU, SLC1A5 / Fold change vs veh, SLC1A5 / RFU, SLMO2 / Fold change vs veh, SLMO2 / RFU, ABCC4 / Fold change vs veh, ABCC4 / RFU, LOC101060439 /// RAP1B / Fold change vs veh, LOC101060439 /// RAP1B / RFU, RFX7 / Fold change vs veh, RFX7 / RFU, GTPBP10 / Fold change vs veh, GTPBP10 / RFU, CNEP1R1 / Fold change vs veh, CNEP1R1 / RFU, BIVM-ERCC5 /// ERCC5 / Fold change vs veh, BIVM-ERCC5 /// ERCC5 / RFU, ILF3 / Fold change vs veh, ILF3 / RFU 11762660_at / Fold change /veh 11762660_at / RFU VCAN (11757783_s_at) / Fold change /veh VCAN (11757783_s_at) / RFU DDX43 (11728927_at) / Fold change /veh DDX43 (11728927_at) / RFU KRT8 (11758188_x_at) / Fold change /veh KRT8 (11758188_x_at) / RFU NKD1 (11759106_at) / Fold change /veh NKD1 (11759106_at) / RFU SRD5A1 (11742802_a_at) / Fold change /veh SRD5A1 (11742802_a_at) / RFU TPSAB1 /// TPSB2 (11721975_s_at) / Fold change /veh TPSAB1 /// TPSB2 (11721975_s_at) / RFU GSTM3 (11746129_a_at) / Fold change /veh GSTM3 (11746129_a_at) / RFU IL23R (11737362_x_at) / Fold change /veh IL23R (11737362_x_at) / RFU TMEM51 (11727254_a_at) / Fold change /veh TMEM51 (11727254_a_at) / RFU PIWIL2 (11732686_x_at) / Fold change /veh PIWIL2 (11732686_x_at) / RFU ORM1 (11744905_x_at) / Fold change /veh ORM1 (11744905_x_at) / RFU CCDC152 (11743942_at) / Fold change /veh CCDC152 (11743942_at) / RFU ECM1 (11717891_a_at) / Fold change /veh ECM1 (11717891_a_at) / RFU IL23R (11748794_a_at) / Fold change /veh IL23R (11748794_a_at) / RFU TNFAIP8L3 (11732012_x_at) / Fold change /veh TNFAIP8L3 (11732012_x_at) / RFU MBOAT4 (11741988_at) / Fold change /veh MBOAT4 (11741988_at) / RFU 11764193_at / Fold change /veh 11764193_at / RFU TMEM53 (11763286_at) / Fold change /veh TMEM53 (11763286_at) / RFU MAGEB2 (11727129_at) / Fold change /veh MAGEB2 (11727129_at) / RFU TMEM200A (11744735_a_at) / Fold change /veh TMEM200A (11744735_a_at) / RFU CCDC152 (11751479_a_at) / Fold change /veh CCDC152 (11751479_a_at) / RFU FAM211A (11726209_a_at) / Fold change /veh FAM211A (11726209_a_at) / RFU RGS16 (11746705_a_at) / Fold change /veh RGS16 (11746705_a_at) / RFU VCAN (11755009_s_at) / Fold change /veh VCAN (11755009_s_at) / RFU RHOB (11743442_s_at) / Fold change /veh RHOB (11743442_s_at) / RFU RGS16 (11720943_a_at) / Fold change /veh RGS16 (11720943_a_at) / RFU RGS16 (11720944_at) / Fold change /veh RGS16 (11720944_at) / RFU, VPS4B / Fold change vs veh, VPS4B / RFU, CREB1 / Fold change vs veh, CREB1 / RFU, DNAJC13 / Fold change vs veh, DNAJC13 / RFU, GNAQ / Fold change vs veh, GNAQ / RFU, CDK5R1 / Fold change vs veh, CDK5R1 / RFU, ZRANB3 / Fold change vs veh, ZRANB3 / RFU, CUL4A / Fold change vs veh, CUL4A / RFU, CCNY / Fold change vs veh, CCNY / RFU, UFL1 / Fold change vs veh, UFL1 / RFU, COG3 / Fold change vs veh, COG3 / RFU, DIAPH2 / Fold change vs veh, DIAPH2 / RFU, SKA2 / Fold change vs veh, SKA2 / RFU, AFF3 / Fold change vs veh, AFF3 / RFU, LMF1 / Fold change vs veh, LMF1 / RFU, IPO11 / Fold change vs veh, IPO11 / RFU, DFFB / Fold change vs veh, DFFB / RFU, FOXP1 / Fold change vs veh, FOXP1 / RFU, CARD8 / Fold change vs veh, CARD8 / RFU, STRN3 / Fold change vs veh, STRN3 / RFU, ADK / Fold change vs veh, ADK / RFU, RASSF2 / Fold change vs veh, RASSF2 / RFU, WIPF1 / Fold change vs veh, WIPF1 / RFU, LARP1B / Fold change vs veh, LARP1B / RFU, RASA1 / Fold change vs veh, RASA1 / RFU, RB1 / Fold change vs veh, RB1 / RFU, PPFIA1 / Fold change vs veh, PPFIA1 / RFU, MAT2A / Fold change vs veh, MAT2A / RFU, CCT5 / Fold change vs veh, CCT5 / RFU, WDR92 / Fold change vs veh, WDR92 / RFU, CUX1 / Fold change vs veh, CUX1 / RFU, TTC7A / Fold change vs veh, TTC7A / RFU, TMEM135 / Fold change vs veh, TMEM135 / RFU, DEPTOR / Fold change vs veh, DEPTOR / RFU, CPM / Fold change vs veh, CPM / RFU, DNAJB6 / Fold change vs veh, DNAJB6 / RFU, CACNA2D3 / Fold change vs veh, CACNA2D3 / RFU, DTX4 / Fold change vs veh, DTX4 / RFU, TFCP2 / Fold change vs veh, TFCP2 / RFU, GMCL1 /// GMCL1P1 / Fold change vs veh, GMCL1 /// GMCL1P1 / RFU, AEBP2 / Fold change vs veh, AEBP2 / RFU, SNHG1 /// SNORD22 /// SNORD25 /// SNORD26 /// SNORD27 /// SNORD28 /// SNORD29 /// SNORD31 / Fold change vs veh, SNHG1 /// SNORD22 /// SNORD25 /// SNORD26 /// SNORD27 /// SNORD28 /// SNORD29 /// SNORD31 / Fold change (Aza/veh), C12orf56 (ProbeSet 11735607_a_at) / Fold change (ACY-1035/veh), C12orf56 (ProbeSet 11735607_a_at) / Fold change (Aza/veh), FGFR1OP (ProbeSet 11751329_s_at) / Fold change (ACY-1035/veh), FGFR1OP (ProbeSet 11751329_s_at) / Fold change (Aza/veh), VPS36 (ProbeSet 11739960_a_at) / Fold change (ACY-1035/veh), VPS36 (ProbeSet 11739960_a_at) / RFU SYPL1 (11715823_x_at) / Fold change /veh SYPL1 (11715823_x_at) / RFU IGFBP7 (11715501_s_at) / Fold change /veh IGFBP7 (11715501_s_at) / RFU REEP3 (11722064_at) / Fold change /veh REEP3 (11722064_at) / RFU IGLL1 (11728026_x_at) / Fold change /veh IGLL1 (11728026_x_at): dose or concentration left out as unconfirmed. The settings on record: MV-4-11 cells, 48 hours.

For the molecule `Nc1ccc(-c2cccs2)cc1NC(=O)c1ccc2c(c1)cc(C1CC1)n2CCN1CCOCC1` [ACY-1035], the “Fold change /veh TMEM136 (11760407_x_at)” value was 1.12.
